Drawing on patent publication US5173490A, “Benzisoxazole and benzisothiazole compounds” (Adir et Compagnie, priority 1991, dated 1992), this text covers ED50 for 7 compounds.

One assay has as its system stereotypies (bruxism) induced by methyl phenidate. The assay is described as follows: Test of the stereotypies induced by methyl phenidate in rats (inhibition of bruxism). To be noted: Rattus norvegicus, ip, 0.5 h, read-out: ED50 (mean effective dose permitting inhibition of bruxism by 50%). The assay is classed as in vivo, male Wistar rats. The procedure: 24 male Wistar rats which weighed between 220 and 240 g and which had eaten nothing for approximately 24 hours were used for this test. Each animal receives a first treatment (reference compound, compound of the invention, or solvent) at a given time before a second treatment (methyl phenidate or physiological serum), which is effected by the i.p. route at the time designated T0. Among the animals used for a test, […] serve as control and receive the following treatments: serum+serum i.p.: 1 animal (serum control); solvent+ 40 mg/kg i.p. methyl phenidate: 2 animals (40 mg/kg i.p. methyl phenidate control); and solvent+0.16, 0.63, 2.5 or 10 mg/kg i.p. of methyl phenidate: 1 animal (0.16, 0.63, 2.5 or 10 mg/kg i.p. methyl phenidate controls).
The test products were administered at given times before the injection of 40 mg/kg i.p. of methyl phenidate at T0. Each animal is observed for a period of 10 seconds. Observations of behaviour were carried out 30 minutes after the treatment with methyl phenidate. A total of 10 observation periods is carried out for each rat at time T30 min. During these observations, the presence (1) or absence (0) of stereotypy is noted.
What is called ED50 is the dose at which the effect has come halfway, by size or by number of responders. Take `CN(C)CCCN1c2ccccc2Sc2ccc(Cl)cc21` [chlorpromazine, reference compound]: the ED50 amounted to 1.4 mg/kg.

The same assay, now with this note: Rattus norvegicus, ip, 0.5 h; rats; i.p.; given before 40 mg/kg i.p. methyl phenidate; observed 30 min after methyl phenidate; read-out: ED50 (mean effective dose permitting inhibition of bruxism by 50%).
Consider `c1ccc2c(c1)CC2CN1CCN(c2nsc3ccccc23)CC1` (racemic) [Example 4, (R,S)-3-{1-[(benzocyclobutan-1-yl)methyl]piperazin-4-yl}-1,2-benzisothiazole], for which the 50% effective dose (ED50) stood at 10 mg/kg.

In the case of `c1ccc2c(c1)CC2CN1CCN(c2noc3ccccc23)CC1` (racemic) [Example 6, (R,S)-3-{1-[(benzocyclobutan-1-yl)methyl]piperazin-4-yl}-1,2-benzisoxazole], the ED50 was 1.25 mg/kg.

Take `COc1cc2c(cc1OC)C(CN1CCN(c3noc4cc(F)ccc34)CC1)C2` (racemic) [Example 17, (R,S)-3-{1-[(4,5-dimethoxybenzocyclobutan-1-yl)methyl]-piperazin-4-yl}-6-fluoro-1,2-benzisoxazole]: the median effective dose (ED50) was 2.5 mg/kg.

In the case of `Fc1ccc2c(N3CCN(CC4CCc5ccccc54)CC3)noc2c1` (racemic) [Example 18, (R,S)-3-{1-[(indan-1-yl)methyl]piperazin-4-yl}-6-fluoro-1,2-benzisoxazole], the ED50 came out at 10 mg/kg.

For the compound `COc1cc2c(cc1OC)C(CN1CCN(c3noc4ccccc34)CC1)C2` (racemic) [Example 19, (R,S)-3-{1-[(4,5-dimethoxybenzocyclobutan-1-yl)-methyl]piperazin-4-yl}-1,2-benzisoxazole], the 50% effective dose (ED50) was determined as 1.25 mg/kg.

As for `Fc1ccc2c(N3CCN(CC4Cc5ccccc54)CC3)noc2c1` (racemic) [Example 1, (R,S)-3-{1-[(benzocyclobutan-1-yl)methyl]piperazin-4-yl}-6-fluoro-1,2-benzisoxazole], the ED50 is 0.31 mg/kg.
